Values of other authors as cited in patent US10226441B2, “Aging inhibitor” (NIHON SIZEN HAKKOH CO., LTD., priority 2014, dated 2019).

Tested on: mice of the same species (SAM-P1, male)

## COC1=C(OC)C(=O)C(C/C=C(\C)CC/C=C(\C)CC/C=C(\C)CC/C=C(\C)CC/C=C(\C)CC/C=C(\C)CC/C=C(\C)CC/C=C(\C)CC/C=C(\C)CCC=C(C)C)=C(C)C1=O [CoQ10, coenzyme Q10]
Non-Patent Literature 14
  Average survival, Age in weeks: 73.98 weeks

## COc1c(O)c(C)c(C/C=C(\C)CC/C=C(\C)CC/C=C(\C)CC/C=C(\C)CC/C=C(\C)CC/C=C(\C)CC/C=C(\C)CC/C=C(\C)CC/C=C(\C)CCC=C(C)C)c(O)c1OC [CoQ10H2]
Non-Patent Literature 14
  Average survival (Days): (519.64 ± 79.53) days
  Average survival, Age in weeks: 74.234 weeks
Non-Patent Literature 14, listed as reduced CoQ10
  Average survival: 519.64 days
